PubChem BioAssay AID504839 (Johns Hopkins Ion Channel Center, 2011)

Molecular target: Potassium voltage-gated channel subfamily KQT member 2 (Rattus norvegicus) (UniProt O88943)
Test: PubChem AID 504839
Conditions: KCNQ2-CHO cells, automated patch clamp current

Sequence of Potassium voltage-gated channel subfamily KQT member 2 (Rattus norvegicus) (O88943 whole entry, looked up): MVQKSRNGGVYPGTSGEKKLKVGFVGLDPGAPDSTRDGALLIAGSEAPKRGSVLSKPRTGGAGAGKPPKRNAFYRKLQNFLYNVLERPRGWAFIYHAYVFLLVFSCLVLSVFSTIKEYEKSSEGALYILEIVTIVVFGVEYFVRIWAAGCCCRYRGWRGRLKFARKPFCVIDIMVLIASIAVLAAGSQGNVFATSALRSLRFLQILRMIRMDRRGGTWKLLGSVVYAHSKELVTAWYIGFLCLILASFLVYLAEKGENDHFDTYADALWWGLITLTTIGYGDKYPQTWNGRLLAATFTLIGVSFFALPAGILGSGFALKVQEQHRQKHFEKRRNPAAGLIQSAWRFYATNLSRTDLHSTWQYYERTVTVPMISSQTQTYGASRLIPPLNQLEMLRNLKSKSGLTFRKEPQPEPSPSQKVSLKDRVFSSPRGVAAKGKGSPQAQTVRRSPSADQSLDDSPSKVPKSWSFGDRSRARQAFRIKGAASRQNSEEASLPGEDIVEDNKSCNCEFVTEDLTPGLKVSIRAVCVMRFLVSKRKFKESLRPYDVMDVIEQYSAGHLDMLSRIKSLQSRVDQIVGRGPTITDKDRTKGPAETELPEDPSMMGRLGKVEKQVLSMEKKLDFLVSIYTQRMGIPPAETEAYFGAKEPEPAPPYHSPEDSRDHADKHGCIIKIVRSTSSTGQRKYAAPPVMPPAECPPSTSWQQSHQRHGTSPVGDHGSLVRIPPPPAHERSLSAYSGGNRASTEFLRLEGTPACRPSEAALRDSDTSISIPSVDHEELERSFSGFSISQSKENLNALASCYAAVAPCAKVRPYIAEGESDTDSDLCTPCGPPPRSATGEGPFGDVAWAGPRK

CCC(C(=O)Nc1ccccc1N1CCCC1)c1ccccc1 (stereo unspecified)
IC50: 160 nM
